Data set [1] can be described thus: method code SF, from DOI: 10.1021/jm200015a, PMID: 21630666. The settings on record: pH 7.4.
A short description of data set [2]: method code SF-HPLC, from DOI: 10.1016/0378-5173(88)90064-6. The settings on record: pH 7.4.
Experiment in data set [3]: not given
This is another data set of the same source.

Experiment in data set [4]: not given
This is another data set of the same source.

Data set [5] is described as follows: method code SF-HPLC, from Yu, G.; Xu, X. (1993). Determination of the 1-octanol/water partition coefficient of nitro-PAHs. Huanjing Huaxue, 12(4)299-303.
Data set [6] can be described thus: method code SF-AS, from Falk, M.; Luecke, L. (1989). Transport of substances through lipid membranes. 11. Effect of esterification on the dissociation and permeation of orotic acid. Pharmazie, 44(9)647. The settings on record: pH 1.2.
Data set [7] is described as follows: method code SF, from DOI: 10.1248/cpb.39.1346, PMID: 1914012.
Experiment in data set [8]: not given
The source holds these as a separate data set.

The nature of data set [9]: method code SF, from DOI: 10.1016/0378-5173(90)90261-2. The settings on record: pH 3.0.
Data set [10] in a line: method code SF-HPLC, from DOI: 10.1023/a:1018903407592, PMID: 8165182. The settings on record: pH 7.4.
Experiment in data set [11]: not given
The source holds these as a separate data set.

The nature of data set [12]: method code SF-AS, from DOI: 10.1016/0378-5173(86)90115-8.
Experiment in data set [13]: not given
The source holds these as a separate data set.

logD and logP data for 40 compounds are collected here from the SangsterLogP compilation.

SMILES strings stand for the structures.

With `O=c1c2c([nH]c3ccc(Br)cc13)CCSC2`, the logD in data set [1] was 0.9.
`COC(=O)C(C)Oc1ccc(Oc2ncc(C(F)(F)F)cc2Cl)cc1` (stereo not given) came in with a logP of 4.07.
As for `CC(=O)c1ccc2cc(C(C)C(=O)OCC(=O)N(C)CCO)ccc2c1` (stereo not given), the logD in data set [2] worked out at 2.01.
Compound `O=S(=O)(Nc1ccccc1)c1c(O)c(Cl)cc(Cl)c1Cl` displayed a logP in data set [3] of 3.74.
In the case of `Cc1cc(I)cc(CN(C)CCCN(C)C)c1O`, the logP in data set [4] came to 2.2.
`O=[N+]([O-])c1cccc(-c2ccccc2)c1` gave a logP in data set [5] of 3.69.
Compound `CCCCCCCCOC(=O)c1cc(=O)[nH]c(=O)[nH]1` showed a logD in data set [6] of 2.6.
Regarding `CC1(C)[C@@H](O[C@H]2O[C@H](C(=O)O)[C@@H](O)[C@H](O)[C@H]2O[C@@H]2O[C@H](C(=O)O)[C@@H](O)[C@H](O)[C@H]2O)CC[C@@]2(C)[C@@H]3C(=O)C=C4[C@H]5C[C@@](C)(C(=O)O)CC[C@@]5(C)CC[C@@]4(C)C3(C)CC[C@@H]12` (stereo not given in full), the logP in data set [7] came to 2.8.
Take `Cc1ccccc1NS(=O)(=O)c1c(O)c(Cl)cc(Cl)c1Cl`: the logP in data set [3] came out at 4.02.
On to `CC(=O)c1ccc2cc(C(C)C(=O)OCC(=O)N(C)C)ccc2c1` (stereo not given), for which the logD in data set [2] was determined as 2.05.
Consider `O=C(CCCN1CCC(O)(c2ccc(I)cc2)CC1)c1ccc(F)cc1`, for which the logP in [4] was 2.6.
In data set [1], `Cc1cc(-c2ccc(OC(F)(F)F)cc2)ccc1-c1ccc2[nH]c3c(c(=O)c2c1)CSCC3` displayed a logD of 3.6.
For `CC1=C(C)C(O)N(c2ccc(C(F)(F)F)c(Cl)c2)C1=O` (stereo not given), in data set [8], the logP was 3.53.
Regarding `CCCCCCCOC(=O)c1cc(=O)[nH]c(=O)[nH]1`, the logD in data set [6] came to 2.15.
In [5], `O=[N+]([O-])c1c2ccccc2cc2ccccc12` came in with a logP of 4.21.
In turn, `O=C(O)CCCCCCc1ccccc1` showed a logD in data set [9] of 3.63.
In turn, `CCCCCC(=O)OCCOCn1cnc2c(=O)[nH]c(N)nc21` displayed a logD in data set [10] of 0.93.
Turning to `CN(CCO)C(=O)COC(=O)c1ccccc1O`, in data set [2], the logD was determined as 0.86.
In the case of `CCCCCCCCCOC(=O)c1cc(=O)[nH]c(=O)[nH]1`, the logD in data set [6] is 2.41.
On to `Clc1cc2oc3cc(Cl)c(Cl)c(Cl)c3c2c(Cl)c1Cl`, for which the logP in data set [11] stood at 7.57.
`O=C(O)CCCCCc1ccccc1` returned a logD in data set [9] of 3.27.
In [8], `CC1=C(C)C(O)N(c2ccc(C(F)(F)F)cc2)C1=O` (stereo not given) gave a logP of 3.13.
`CCCN(CCCl)c1c([N+](=O)[O-])cc(C(F)(F)F)cc1[N+](=O)[O-]` showed a logP of 4.63.
`O=[N+]([O-])c1ccc2ccc3cccc4ccc1c2c34`: the logP in data set [5] came out at 5.06.
`CCCC(=O)OCCOCn1cnc2c(=O)[nH]c(N)nc21` showed a logD in data set [10] of -0.08.
Take `Clc1cc(Cl)c2oc3c(Cl)cc(Cl)c(Cl)c3c2c1Cl`: the logP in data set [11] was 7.65.
As to `CC(C)NC(C)Cc1ccc(I)cc1` (stereo not given), in data set [4], the logP was 1.6.
In [3], `O=S(=O)(Nc1ccc(Cl)cc1)c1cc(Cl)cc(Cl)c1O` returned a logP of 3.66.
In turn, `O=C(O)CCCCCCCc1ccccc1` displayed a logD in [9] of 4.09.
The compound `CC1(C(=O)O)CCC2(C)CCC3(C)C(=CC(=O)C4C5(C)CCC(O)C(C)(C)C5CCC43C)C2C1` (stereo not given) gave a logP in data set [7] of 4.77.
Consider `CCCCC(=O)OCCOCn1cnc2c(=O)[nH]c(N)nc21`, for which the logD in data set [10] is 0.37.
Compound `CC1=C(C)C(O)N(c2cccc(N)c2)C1=O` (stereo not given) had a logP in [8] of 0.51.
`CCCCC(=O)N(C)c1ccc(S(=O)(=O)N(C)C)cc1` showed a logP in data set [12] of 1.63.
With `Clc1cc(Cl)c2oc3c(Cl)c(Cl)c(Cl)c(Cl)c3c2c1`, in [11], the lipophilicity (logP) stood at 7.58.
`Clc1cc2c(c(Cl)c1Cl)Oc1cc(Cl)c(Cl)c(Cl)c1O2` yielded a logP in data set [13] of 7.8.
Consider `CN(C(=O)CCO)c1ccc(S(=O)(=O)N(C)C)cc1`, for which, in data set [12], the logP was -0.26.
Consider `O=C(O)c1cc(Oc2ccc(C(F)(F)F)cc2Cl)ccc1[N+](=O)[O-]`, for which the logP is 4.26.
For the compound `CN(C(=O)CCC#N)c1ccc(S(=O)(=O)N(C)C)cc1`, the logP in data set [12] is -0.17.
For the compound `O=[N+]([O-])c1cccc(O[C@@H]2O[C@H](CO)[C@@H](O)[C@H](O)[C@H]2O)c1`, the logP in data set [7] was -0.46.
For the compound `O=c1c2c([nH]c3cc(-c4ccc(-c5ccc(OC(F)(F)F)cc5)cc4)ccc13)CCCC2`, the logD in [1] was 3.8.
